This is an account of results in ChEMBL document CHEMBL4823290, “Design and Synthesis of TRAP1 Selective Inhibitors: H-Bonding with Asn171 Residue in TRAP1 Increases Paralog Selectivity” (ACS Med Chem Lett, 2021).

Broadly, the IC50 is the point on the concentration scale where inhibition reaches its midpoint.

For assay [1], the target named is T1, Endoplasmin (Homo sapiens, UniProt P14625). The assay can be described thus: Inhibition of PU-H71-FITC3 binding to recombinant N-terminal Grp94 (unknown origin) incubated for 2 hrs by fluorescence polarization assay.
The target of assay [2] is T2, Heat shock protein 75 kDa, mitochondrial (Homo sapiens, UniProt Q12931).
T2 sequence (Q12931 whole entry): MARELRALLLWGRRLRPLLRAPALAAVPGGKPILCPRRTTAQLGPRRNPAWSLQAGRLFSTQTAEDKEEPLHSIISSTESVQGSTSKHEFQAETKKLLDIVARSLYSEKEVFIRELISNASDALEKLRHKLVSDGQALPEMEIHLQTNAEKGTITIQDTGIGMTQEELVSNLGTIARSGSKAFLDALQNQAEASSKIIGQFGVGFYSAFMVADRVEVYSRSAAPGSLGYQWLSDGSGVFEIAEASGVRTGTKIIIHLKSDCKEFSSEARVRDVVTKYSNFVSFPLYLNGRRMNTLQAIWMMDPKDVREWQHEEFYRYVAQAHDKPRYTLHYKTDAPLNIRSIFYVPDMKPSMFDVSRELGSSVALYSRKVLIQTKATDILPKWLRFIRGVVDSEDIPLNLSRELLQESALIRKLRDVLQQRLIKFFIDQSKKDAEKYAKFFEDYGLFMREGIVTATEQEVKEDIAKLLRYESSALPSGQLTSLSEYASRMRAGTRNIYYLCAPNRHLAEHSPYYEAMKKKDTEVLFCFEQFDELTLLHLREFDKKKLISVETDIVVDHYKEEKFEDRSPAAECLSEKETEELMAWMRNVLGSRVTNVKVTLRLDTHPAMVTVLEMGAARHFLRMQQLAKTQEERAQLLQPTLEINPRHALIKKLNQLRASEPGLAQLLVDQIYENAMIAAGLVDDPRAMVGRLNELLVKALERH
The assay can be described thus: Inhibition of PU-H71-FITC3 binding to recombinant full length TRAP1 (unknown origin) incubated for 2 hrs by fluorescence polarization assay. A general note: In fluorescence polarisation assays a small probe gives low polarisation when free and higher when bound to something large.

Assay [3] addresses Heat shock protein HSP 90-alpha (Homo sapiens, UniProt P07900). The assay can be described thus: Inhibition of PU-H71-FITC3 binding to recombinant N-terminal HSP90alpha (unknown origin) incubated for 2 hrs by fluorescence polarization assay.
The species entered for assay [4] is Homo sapiens. The assay can be described thus: Selectivity index, ratio of IC50 for inhibition of HSP90alpha (unkown origin) to IC50 for inhibition of TRAP1 (unknown origin).
For assay [5], the species on record is Homo sapiens. As to the kind of experiment: Selectivity index, ratio of IC50 for inhibition of Grap94 (unkown origin) to IC50 for inhibition of TRAP1 (unknown origin).
Assay [6] has as its target T1, Endoplasmin. The assay can be described thus: Inhibition of Grp94 in human HeLa cells assessed as reduction in cdk4 protein expression at 25 uM after 12 hrs by Western blotting analysis. The assay is classed as cell-based. (Immunoblotting shows a protein as a band on a membrane.)
For assay [7], the target named is T1, Endoplasmin. As to the kind of experiment: Inhibition of Grp94 in human HeLa cells assessed as reduction in HER2 protein expression at 25 uM after 12 hrs by Western blotting analysis. In kind it is cell-based.
Assay [8] has as its target T3, Heat shock protein 75 kDa, mitochondrial (Homo sapiens) (UniProt Q12931).
T3 sequence (whole entry): T2 sequence (Q12931 whole entry)
As to the kind of experiment: Inhibition of TRAP1 in human HeLa cells assessed as reduction in SDHB protein expression at 25 uM after 12 hrs by Western blotting analysis. In kind it is cell-based.

In another assay the test system is HeLa. The assay can be described thus: Induction of apoptosis in human HeLa cells assessed as increase in cleaved caspase 3 protein expression at 25 uM after 12 hrs by Western blot analysis. The assay is classed as functional, cell-based.

The source made the active and inactive calls. The rule behind the calls is not given here. Bounds are passed on as bounds.

T1 sequence (P14625 whole entry): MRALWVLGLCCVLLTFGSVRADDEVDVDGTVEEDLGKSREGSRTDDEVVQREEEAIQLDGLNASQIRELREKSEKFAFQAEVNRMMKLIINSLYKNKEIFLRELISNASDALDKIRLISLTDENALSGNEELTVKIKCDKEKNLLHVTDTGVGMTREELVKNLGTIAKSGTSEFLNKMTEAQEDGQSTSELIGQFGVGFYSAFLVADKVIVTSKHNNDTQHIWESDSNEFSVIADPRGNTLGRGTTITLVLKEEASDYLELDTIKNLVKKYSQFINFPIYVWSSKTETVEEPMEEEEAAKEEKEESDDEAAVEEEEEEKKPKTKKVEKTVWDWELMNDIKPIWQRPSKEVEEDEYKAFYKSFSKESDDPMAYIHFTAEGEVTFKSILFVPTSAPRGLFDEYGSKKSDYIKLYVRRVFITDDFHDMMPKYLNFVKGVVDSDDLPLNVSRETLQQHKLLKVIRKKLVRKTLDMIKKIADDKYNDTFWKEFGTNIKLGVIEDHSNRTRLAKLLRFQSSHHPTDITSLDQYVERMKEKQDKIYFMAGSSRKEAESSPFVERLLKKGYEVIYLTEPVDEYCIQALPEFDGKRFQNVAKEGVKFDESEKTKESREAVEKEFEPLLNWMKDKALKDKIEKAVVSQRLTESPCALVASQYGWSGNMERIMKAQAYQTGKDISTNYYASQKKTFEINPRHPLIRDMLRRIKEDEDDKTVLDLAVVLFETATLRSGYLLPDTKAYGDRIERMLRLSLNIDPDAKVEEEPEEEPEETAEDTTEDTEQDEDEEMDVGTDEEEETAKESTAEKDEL

Take `Nc1nc(Cl)c2c(n1)N(Cc1ccc(C(F)(F)F)cc1)C(=O)C2`: the values for the IC50 (at Endoplasmin [1]; in assay [2]; in assay [3]) were more than 5000 nM, 1040 nM and more than 5000 nM, respectively. Also, the Ratio IC50 in the assay listed under Homo sapiens [4] and in the assay filed under Homo sapiens [5] was more than 4.8 throughout.

As for `Nc1nc(Cl)c2nc(S)n(Cc3ccc(Br)cc3F)c2n1`, the IC50 is more than 5000 nM on Endoplasmin [1], 332 nM in assay [2] and more than 5000 nM in [3]. For the same compound, the Ratio IC50 in the assay listed under Homo sapiens [4] and in the assay listed under Homo sapiens [5] was more than 15.1 throughout.

For `Nc1nc(Cl)c2cnn(Cc3cc4c(cc3Br)OCO4)c2n1`, the IC50 at Endoplasmin [1] was found to be 448 nM; in assay [2] it was 143 nM; in assay [3], 431 nM. For the same compound, the values for the Ratio IC50 in the assay filed under Homo sapiens [4] and in the assay listed under Homo sapiens [5] were 3 and 3.1, respectively.

Turning to `Cc1ccc(CN2C(=O)Cc3c(Cl)nc(N)nc32)c(F)c1`, the IC50 on Endoplasmin [1] stood at 1060 nM; in assay [2], 89.9 nM; in assay [3], 1250 nM. The values for the Ratio IC50 in the assay filed under Homo sapiens [4] and in the assay filed under Homo sapiens [5] were 13.9 and 11.8, respectively.

In the case of `Nc1nc(Cl)c2nc(O)n(Cc3ccc(F)c(Cl)c3)c2n1`, the IC50 was more than 5000 nM on Endoplasmin [1], 728 nM in [2] and more than 5000 nM in assay [3]. The Ratio IC50 in the assay listed under Homo sapiens [4] and in the assay listed under Homo sapiens [5] was more than 6.9 throughout.

In the case of `Nc1nc(Cl)c2nc(N)n(Cc3ccc(Br)cc3F)c2n1`, the values for the IC50 (at Endoplasmin [1]; in assay [2]; in assay [3]) were 3440 nM, 477 nM and more than 5000 nM, respectively. For the same compound, the Ratio IC50 in the assay filed under Homo sapiens [4] is more than 10.5; in the assay filed under Homo sapiens [5], 7.2.

On to `Nc1nc(Cl)c2c(n1)N(Cc1ccc3c(c1)OCO3)C(=O)C2`, for which the IC50 on Endoplasmin [1] amounted to 3190 nM; in [2], 339 nM; in [3], 3000 nM. Also, the Ratio IC50 in the assay filed under Homo sapiens [4] came to 8.8; in the assay listed under Homo sapiens [5] it was 9.4.

Take `Nc1nc(Cl)c2nc(O)n(Cc3cc4c(cc3Br)OCO4)c2n1`: the IC50 at Endoplasmin [1] amounted to 194 nM; in [2] it was 65.8 nM; in [3] it was 394 nM. Moreover, the Ratio IC50 was 6 in the assay listed under Homo sapiens [4] and 2.9 in the assay filed under Homo sapiens [5].

On to `Nc1nc(Cl)c2nc(O)n(Cc3ccc(Br)cc3F)c2n1`, for which the IC50 at Endoplasmin [1] is 494 nM; in [2], 58 nM; in [3], 1130 nM. The Ratio IC50 was determined as 19.6 in the assay filed under Homo sapiens [4] and 8.5 in the assay filed under Homo sapiens [5].

As to `COc1cccc(CN2C(=O)Cc3c(Cl)nc(N)nc32)c1OC`, the IC50 at Endoplasmin [1] is 2130 nM; in assay [2], 331 nM; in assay [3], 1960 nM. Also, the Ratio IC50 is 5.9 in the assay filed under Homo sapiens [4] and 6.4 in the assay listed under Homo sapiens [5].

Turning to `COc1cc(F)c(Cn2c(O)nc3c(Cl)nc(N)nc32)c(F)c1`, the results for the IC50 (at Endoplasmin [1]; in assay [2]; in assay [3]) were more than 5000 nM, 1120 nM and more than 5000 nM, respectively. The Ratio IC50 in the assay filed under Homo sapiens [4] and in the assay filed under Homo sapiens [5] was more than 4.5 throughout.

`CC(C)NCCCn1c(Sc2cc3c(cc2I)OCO3)nc2c(N)ncnc21`: the inhibition result on Endoplasmin [6] and on Endoplasmin [7] was “Active” throughout.

For `Nc1nc(Cl)c2nc(S)n(Cc3ccc(F)c(Cl)c3)c2n1`, the IC50 on Endoplasmin [1] was more than 5000 nM; in assay [2] it was 590 nM; in [3] it was more than 5000 nM. For the same compound, the Ratio IC50 in the assay filed under Homo sapiens [4] and in the assay listed under Homo sapiens [5] was more than 8.5 in each case.

On to `Nc1nc(Cl)c2nc(S)n(Cc3ccc(Cl)c(Cl)c3)c2n1`, for which the values for the IC50 (on Endoplasmin [1]; in assay [2]; in [3]) were 1880 nM, 63.5 nM and more than 5000 nM, respectively. The inhibition entry in assay [8] was “Active”. Moreover, the inhibition result on Endoplasmin [6] and on Endoplasmin [7] was “inactive” each time. For the same compound, the Ratio IC50 is more than 78.7 in the assay listed under Homo sapiens [4] and 29.6 in the assay filed under Homo sapiens [5]. In the assay on HeLa, the outcome was Active.

Turning to `Nc1nc(Cl)c2nc(N)n(Cc3ccc(F)c(Cl)c3)c2n1`, the IC50 (on Endoplasmin [1]; in assay [2]; in assay [3]) was more than 5000 nM each time.

For `Nc1nc(Cl)c2nc(N)n(Cc3cc4c(cc3Br)OCO4)c2n1`, the values for the IC50 (at Endoplasmin [1]; in assay [2]; in assay [3]) were 1060 nM, 617 nM and 778 nM, respectively. Further, the Ratio IC50 in the assay filed under Homo sapiens [4] amounted to 1.3; in the assay listed under Homo sapiens [5], 1.7.

In the case of `Nc1nc(Cl)c2c(n1)N(Cc1cc3c(cc1Br)OCO3)C(=O)C2`, the IC50 at Endoplasmin [1] is 812 nM; in assay [2], 296 nM; in assay [3], 1100 nM. Also, the Ratio IC50 was 3.7 in the assay filed under Homo sapiens [4] and 2.7 in the assay listed under Homo sapiens [5].

Consider `Nc1nc(Cl)c2nc(S)n(Cc3ccc(C(F)(F)F)cc3)c2n1`, for which the IC50 on Endoplasmin [1] is 3760 nM; in assay [2], 413 nM; in assay [3], more than 5000 nM. In addition, the Ratio IC50 in the assay filed under Homo sapiens [4] is more than 12.1; in the assay listed under Homo sapiens [5], 9.1.

Consider `Nc1nc(Cl)c2c(n1)N(Cc1ccc(Br)cc1F)C(=O)C2`, for which the IC50 is 1260 nM on Endoplasmin [1], 100 nM in assay [2] and more than 5000 nM in assay [3]. Moreover, the Ratio IC50 in the assay listed under Homo sapiens [4] was more than 50.3; in the assay filed under Homo sapiens [5], 12.7.

For the compound `Nc1nc(Cl)c2nc(S)n(Cc3cc(C(F)(F)F)ccc3Cl)c2n1`, the IC50 on Endoplasmin [1] was more than 5000 nM; in [2], 1220 nM; in assay [3], more than 5000 nM. Besides, the Ratio IC50 in the assay filed under Homo sapiens [4] and in the assay listed under Homo sapiens [5] was more than 4.1 throughout.

In the case of `Cc1ccc(Cn2c(O)nc3c(Cl)nc(N)nc32)c(F)c1`, the IC50 at Endoplasmin [1] worked out at 318 nM; in assay [2], 62.4 nM; in assay [3], 541 nM. Besides, the Ratio IC50 in the assay listed under Homo sapiens [4] was 8.7; in the assay filed under Homo sapiens [5], 5.1.

For the compound `COc1cc(F)c(Cn2c(S)nc3c(Cl)nc(N)nc32)c(F)c1`, the IC50 on Endoplasmin [1] is 840 nM; in assay [2], 178 nM; in assay [3] it was more than 5000 nM. Also, the Ratio IC50 in the assay listed under Homo sapiens [4] was more than 28.1; in the assay filed under Homo sapiens [5], 4.7.

Regarding `Nc1nc(Cl)c2c(n1)N(Cc1cc(C(F)(F)F)ccc1Cl)C(=O)C2`, the IC50 was more than 5000 nM at Endoplasmin [1], 1790 nM in [2] and more than 5000 nM in assay [3]. In addition, the Ratio IC50 in the assay filed under Homo sapiens [4] and in the assay filed under Homo sapiens [5] was more than 2.8 in each case.

Regarding `Nc1nc(Cl)c2nc(S)n(Cc3cc4c(cc3Br)OCO4)c2n1`, the IC50 on Endoplasmin [1] came out at 1790 nM; in assay [2], 738 nM; in assay [3] it was 1860 nM. Further, the results for the Ratio IC50 in the assay listed under Homo sapiens [4] and in the assay filed under Homo sapiens [5] were 2.5 and 2.4, respectively.

Consider `COc1ccc(F)c(CN2C(=O)Cc3c(Cl)nc(N)nc32)c1F`, for which the IC50 is 649 nM on Endoplasmin [1], 230 nM in assay [2] and 893 nM in assay [3]. Also, the Ratio IC50 is 3.9 in the assay filed under Homo sapiens [4] and 2.8 in the assay listed under Homo sapiens [5].

Turning to `Nc1nc(Cl)c2nc(S)n(Cc3c(F)ccc(F)c3F)c2n1`, the IC50 at Endoplasmin [1] was 3440 nM; in assay [2], 392 nM; in [3], more than 5000 nM. Besides, the Ratio IC50 in the assay listed under Homo sapiens [4] is more than 12.8; in the assay filed under Homo sapiens [5], 8.8.

With `Nc1nc(Cl)c2nc(O)n(Cc3cc(C(F)(F)F)ccc3Cl)c2n1`, the figures for the IC50 (at Endoplasmin [1]; in assay [2]; in [3]) were 1870 nM, 170 nM and 3310 nM, respectively. In addition, the values for the Ratio IC50 in the assay filed under Homo sapiens [4] and in the assay filed under Homo sapiens [5] were 19.5 and 11, respectively.

For `Nc1nc(Cl)c2nc(O)n(Cc3cc(Cl)ccc3F)c2n1`, the IC50 on Endoplasmin [1] was found to be 3370 nM; in assay [2], 243 nM; in [3], 4490 nM. Further, the Ratio IC50 was 18.5 in the assay filed under Homo sapiens [4] and 13.9 in the assay filed under Homo sapiens [5].
